Results published in PMC7413308 (ARKIVOC : free online journal of organic chemistry, 2018).
“And” between values parts separate entries of the source, which are not always exact repeats. Identical values can stand only once.

Legend:
[1] = In vitro microsomal stability of analogs; type: in vitro ADME, human; conditions: for half-life / remaining at 1 h / remaining at 2 h: human, liver microsomes; for remaining at 1 h / remaining at 2 h: Microsomal stability (HLM) % remaining
[2] = In vitro microsomal stability of analogs; type: in vitro ADME, mouse; conditions: for half-life / remaining at 2 h / remaining at 1 h: mouse, liver microsomes; for remaining at 2 h / remaining at 1 h: Microsomal stability (MLM) % remaining
[3] = tested on: HEK293 (kidney) cell line; experiment: In vitro cytotoxicity, cell viability; type: cell-based; conditions: 48 h incubation, Cell-Titer Glo cell viability
HEPG2 (liver) cell line = experiment: In vitro cytotoxicity, cell viability; type: cell-based; conditions: 48 h incubation, Cell-Titer Glo cell viability
mice = experiment: Sensorimotor coordination on rotating rod after oral gavage; type: in vivo; conditions: oral gavage 40 mg/kg, rotating rod max 3 minutes, three time-points
Procognitive assay = type: in vivo; conditions: data only preliminary
[4] = footnote d: assessed at 1-hour incubation time
[5] = footnote a: compound not detected after 10 minutes

SMILES	half-life [1]	half-life [2]	remaining at 2 h ([2]; after 2 hr)	HEK293 LD50 [3]	HEPG2 LD50 (HEPG2 (liver) cell line)	remaining at 2 h ([1]; after 2 hr)	other results
C#Cc1ccc2c(c1)C(c1ccccc1F)=N[C@@H](C)c1c(C(=O)OC)ncn1-2 [5a, (S)-Methyl-8-ethynyl-6-(2-fluorophenyl)-4-methyl-4H-benzo[f]imidazo[1,5-a][1,4]diazepine-3-carboxylate]	1.98 ± 0.35 h	3.6 ± 0.467 h	62 ± 0.5%	68.2 ± 4.3 µM			remaining at 1 h [1, 4]: 43 ± 0.4%
C#Cc1ccc2c(c1)C(c1ccccc1F)=N[C@@H](C)c1c(C(=O)OC(C)(C)C)ncn1-2 [5d, (S)-tert-Butyl-8-ethynyl-6-(2-fluorophenyl)-4-methyl-4H-benzo[f]imidazo[1,5-a][1,4]diazepine-3-carboxylate]	8.57 ± 1.92 h	3.27 ± 0.333 h			21.4 ± 1.9 µM		remaining at 1 h [1, 4]: 89 ± 0.2%; remaining at 1 h [2, 4]: 78 ± 0.2%
CCOC(=O)c1ncn2c1[C@H](C)N=C(c1ccccc1F)c1cc(C3CC3)ccc1-2 [compound 3, (S)-Ethyl-8-cyclopropyl-6-(2-fluorophenyl)-4-methyl-4H-benzo[f]imidazo[1,5-a][1,4]diazepine-3-carboxylate]	< 0.0833 h	0.767 ± 0.05 h	16 ± 0.4%	58.0 ± 6.0 µM	87.0 ± 6.6 µM		
C#Cc1ccc2c(c1)C(c1ccccc1F)=N[C@@H](C)c1c(C(=O)OC(C)(C)CC)ncn1-2 [5e, (S)-tert-Pentyl-8-ethynyl-6-(2-fluorophenyl)-4-methyl-4H-benzo[f]imidazo[1,5-a][1,4]diazepine-3-carboxylate]				17.2 ± 1.6 µM	17.1 ± 1.4 µM		
C#Cc1ccc2c(c1)C(c1ccccc1F)=N[C@@H](C)c1c(-c3nc(C(C)C)no3)ncn1-2 [9c, (S)-5-(8-Ethynyl-6-(2-fluorophenyl)-4-methyl-4H-benzo[f]imidazo[1,5-a][1,4]diazepin-3-yl)-3-isopropyl-1,2,4-oxadiazole]	43.1 ± 32 h	8.33 ± 1.82 h	79 ± 0.5%	32.5 ± 7.6 µM	21.7 ± 1.8 µM	91 ± 0.3%	Effect on sensorimotor coordination (motor impairment, sedation/ataxia) (mice): exhibited no sensorimotor impairment
C#Cc1ccc2c(c1)C(c1ccccc1F)=N[C@@H](C)c1c(-c3nc(C)no3)ncn1-2 [9a, (S)-5-(8-Ethynyl-6-(2-fluorophenyl)-4-methyl-4H-benzo[f]imidazo[1,5-a][1,4]diazepin-3-yl)-3-methyl-1,2,4-oxadiazole]			81 ± 0.4%	69.3 ± 2.3 µM		86 ± 0.3%	Effect on sensorimotor coordination (motor impairment, sedation/ataxia) (mice): did not exhibit motor impairments; Procognitive effects in the Y-maze paradigm (Procognitive assay): procognitive effects (C+)
C#Cc1ccc2c(c1)C(c1ccccc1F)=N[C@@H](C)c1c(C(=O)NC3CC3)ncn1-2 [8c, (S)-N-Cyclopropyl-8-ethynyl-6-(2-fluorophenyl)-4-methyl-4H-benzo[f]imidazo[1,5-a][1,4]diazepine-3-carbox-amide]				63.8 ± 3.0 µM	93.5 ± 5.7 µM		Microsomal stability (HLM) % remaining [1, 4]: 89.0 ± 0.4^d %; Microsomal stability (HLM) Half-life [1, 4]: 1625 ± 803^d min; Microsomal stability (MLM) % remaining [2, 4]: 72.0 ± 0.3^d %; Microsomal stability (MLM) Half-life [2, 4]: 320 ± 34^d min
COC(=O)c1ncn2c1[C@H](C)N=C(c1ccccc1F)c1cc(Br)ccc1-2 [4a, (S)-Methyl-8-bromo-6-(2-fluorophenyl)-4-methyl-4H-benzo[f]imidazo[1,5-a][1,4]diazepine-3-carboxylate]	0.167 ± 0.0167 h	1.93 ± 0.217 h	41 ± 0.6%	98.5 ± 7.9 µM			remaining at 1 h [1, 4]: 2 ± 0.3%
C#Cc1ccc2c(c1)C(c1ccccc1F)=N[C@@H](C)c1c(C(=O)NC)ncn1-2 [8a, (S)-8-Ethynyl-6-(2-fluorophenyl)-N,4-dimethyl-4H-benzo[f]imidazo[1,5-a][1,4]diazepine-3-carboxamide]			86 ± 0.2%			92 ± 0.3%	
C#Cc1ccc2c(c1)C(c1ccccc1F)=N[C@@H](C)c1c(C(=O)SCC)ncn1-2 [compound 7, (S)-S-Ethyl-8-ethynyl-6-(2-fluorophenyl)-4-methyl-4H-benzo[f]imidazo[1,5-a][1,4]diazepine-3-carbothioate]				20.5 ± 4.7 µM	30.2 ± 9.7 µM		Microsomal stability (HLM) % remaining ([1]; after 2 hr): 28.0 ± 0.3%; Microsomal stability (HLM) Half-life ([1]; after 2 hr): 101 ± 19 min; Microsomal stability (MLM) % remaining ([2]; after 2 hr): 9.0 ± 0.5%; Microsomal stability (MLM) Half-life ([2]; after 2 hr): 46 ± 6 min
C#Cc1ccc2c(c1)C(c1ccccc1F)=N[C@@H](C)c1c(C(=O)OC3CC3)ncn1-2 [5g, (S)-Cyclopropyl-8-ethynyl-6-(2-fluorophenyl)-4-methyl-4H-benzo[f]imidazo[1,5-a][1,4]diazepine-3-carboxyl-ate]				35.8 ± 3.3 µM	85.1 ± 3.8 µM		% remaining in HLM ([1]; after 10, 20, and 30 minutes in HLM): less than 5%; Microsomal stability (HLM) % remaining [1, 5]: < 5.0^a %; Microsomal stability (HLM) Half-life [1, 5]: < 5^a min; Microsomal stability (MLM) % remaining [2, 4]: 11.0 ± 0.2^d %; Microsomal stability (MLM) Half-life [2, 4]: 19 ± 2^d min
C#Cc1ccc2c(c1)C(c1ccccc1F)=N[C@@H](C)c1c(C(=O)NC(C)C)ncn1-2 [8d, (S)-8-Ethynyl-6-(2-fluorophenyl)-N-isopropyl-4-methyl-4H-benzo[f]imidazo[1,5-a][1,4]diazepine-3-carboxa-mide]				80.2 ± 11.1 µM	56.9 ± 4.8 µM		Microsomal stability (HLM) % remaining ([1]; after 2 hr): 38.0 ± 0.5%; Microsomal stability (HLM) Half-life ([1]; after 2 hr): 107 ± 10 min; Microsomal stability (MLM) % remaining ([2]; after 2 hr): 75.0 ± 0.3%; Effect on sensorimotor coordination (motor impairment, sedation/ataxia) (mice): did not show any motor impairment
C#Cc1ccc2c(c1)C(c1ccccc1F)=N[C@@H](C)c1c(-c3nc(CC)no3)ncn1-2 [9b, (S)-3-Ethyl-5-(8-ethynyl-6-(2-fluorophenyl)-4-methyl-4H-benzo[f]imidazo[1,5-a][1,4]diazepin-3-yl)-1,2,4-oxadiazole]	9.38 ± 2.05 h	3.55 ± 0.283 h	63 ± 0.3%	46.9 ± 6.6 µM	35.1 ± 3.7 µM	80 ± 0.4%	Effect on sensorimotor coordination (motor impairment, sedation/ataxia) (mice): exhibited no sensorimotor impairment
C#Cc1ccc2c(c1)C(c1ccccc1F)=N[C@@H](C)c1c(C#N)ncn1-2 [compound 10, (S)-8-Ethynyl-6-(2-fluorophenyl)-4-methyl-4H-benzo[f]imidazo[1,5-a][1,4]diazepine-3-carbonitrile]	0.683 ± 0.0833 h	0.967 ± 0.1 h	16%	81.6 ± 6.7 µM	57.1 ± 5.6 µM	9 ± 0.3%	Microsomal stability (MLM) % remaining ([2]; after 2 hr): 17.0 ± 0.6%
C#Cc1ccc2c(c1)C(c1ccccc1F)=N[C@@H](C)c1c(C(=O)NC(C)(C)C)ncn1-2 [8e, (S)-N-(tert-Butyl)-8-ethynyl-6-(2-fluorophenyl)-4-methyl-4H-benzo[f]imidazo[1,5-a][1,4]diazepine-3-carbox-amide]				33.6 ± 3.0 µM	43.4 ± 4.0 µM		Microsomal stability (HLM) % remaining ([1]; after 2 hr): 63.0 ± 0.3%; Microsomal stability (HLM) Half-life ([1]; after 2 hr): 205 ± 14 min; Microsomal stability (MLM) % remaining ([2]; after 2 hr): 52.0 ± 0.3%; Microsomal stability (MLM) Half-life ([2]; after 2 hr): 142 ± 9 min; Effect on sensorimotor coordination (motor impairment, sedation/ataxia) (mice): did not show any motor impairment
C#Cc1ccc2c(c1)C(c1ccccc1F)=N[C@@H](C)c1c(C(=O)OCC(F)(F)F)ncn1-2 [5f, (S)-2,2,2-Trifluoroethyl-8-ethynyl-6-(2-fluorophenyl)-4-methyl-4H-benzo[f]imidazo[1,5-a][1,4]diazepine-3-carboxylate]	< 0.0833 h	< 0.0833 h		138 µM and 138.1 ± 31.8 µM	>400 µM		
C#Cc1ccc2c(c1)C(c1ccccc1F)=N[C@@H](C)c1c(C(=O)NCC)ncn1-2 [8b, (S)-N-Ethyl-8-ethynyl-6-(2-fluorophenyl)-4-methyl-4H-benzo[f]imidazo[1,5-a][1,4]diazepine-3-carboxamide]	33 ± 0.833 h	32.7 ± 0.767 h	> 92%	95.5 ± 12.6 µM	65.4 ± 7.3 µM	> 92%	
C#Cc1ccc2c(c1)C(c1ccccc1F)=N[C@@H](C)c1c(C(=O)O)ncn1-2 [compound 6, (S)-8-Ethynyl-6-(2-fluorophenyl)-4-methyl-4H-benzo[f]imidazo[1,5-a][1,4]diazepine-3-carboxylic acid]	5.97 ± 0.933 h	2.32 ± 0.183 h		>400 µM	>400 µM	74 ± 0.4%	remaining at 1 h [2, 4]: 54 ± 0.3%
C#Cc1ccc2c(c1)C(c1ccccc1F)=N[C@@H](C)c1c(C(=O)OC(C)C)ncn1-2 [5c, (S)-Isopropyl-8-ethynyl-6-(2-fluorophenyl)-4-methyl-4H-benzo[f]imidazo[1,5-a][1,4]diazepine-3-carboxylate]	0.95 ± 0.0333 h	3.78 ± 0.267 h		48.9 ± 4.4 µM	39.9 ± 2.8 µM		remaining at 1 h [1, 4]: 47 ± 0.2%; remaining at 1 h [2, 4]: 83 ± 0.1%
C#Cc1ccc2c(c1)C(c1ccccc1F)=N[C@@H](C)c1c(C(=O)OCCC)ncn1-2 [5b, (S)-Propyl-8-ethynyl-6-(2-fluorophenyl)-4-methyl-4H-benzo[f]imidazo[1,5-a][1,4]diazepine-3-carboxylate]	< 0.0833 h	0.4 h		53.2 ± 4.4 µM	56.3 ± 4.0 µM		remaining at 1 h [2, 4]: 12 ± 0.2%
